Assay results as given in patent US11713309B2, “Solid forms of Cerdulatinib” (Alexion Pharmaceuticals, Inc., priority 2018, dated 2023).
Where a name gives a salt, the structure may show the parent alone.

Legend:
Type in all cases: physicochemical
[1] = Slurry maturations in various solvents (form reproducibility/stability); details: acetonitrile, EtOAc, ethanol, IPA; cycling about 25 to about 50° C., about 4 days
Experimental: A series of slurry maturations in various solvents was performed to further analyze the form reproducibility/stability of the esylate, mesylate, HCl, and sulfate salts/co-crystals of Compound I. The solvents chosen were acetonitrile, EtOAc, ethanol, and IPA. The input materials were the salts/co-crystals of Compound I formed via the second scale up process. About 20 mg of each sample was charged to reflux tubes and heated with temperature cycling between about 25 and about 50° C. for about 4 days. The resulting materials were isolated by filtration and dried in vacuo at about 40° C. The results of the slurry maturations for the resulting HCl and mesylate salts/co-crystals are presented in subsections (a)-(d) below. The data for the resulting esylate and sulfate salts/co-crystals of Compound have been omitted due to notable form variation.

[2] = Gravimetric vapor sorption (GVS) hygroscopicity; details: for GVS weight gain / total weight uptake: at/after about 70% RH, 25° C.
Experimental: Sorption isotherms were obtained using a Hiden Isochema moisture sorption analyser (model IGAsorp), controlled by IGAsorp Systems Software v6.50.48. The sample was maintained at a constant temperature (25° C.) by the instrument controls. The humidity was controlled by mixing streams of dry and wet nitrogen, with a total flow of 250 mL·min^−1. The instrument was verified for relative humidity content by measuring three calibrated Rotronic salt solutions (10-50-88%). The weight change of the sample was monitored as a function of humidity by a microbalance (accuracy+/−0.005 mg). A defined amount of sample was placed in a tared mesh stainless steel basket under ambient conditions. A full experimental cycle consisted of two scans (sorption and desorption) at a constant temperature (25° C.) and 10% RH intervals over a 10-90% range (90 minutes for each humidity level).
The hygroscopicity of the esylate, mesylate, HCl, and sulfate salts/co-crystals of Compound I formed via the first scale up process was analyzed. All hygroscopicity experiments covered a wide range of humidity (0 to about 90% relative humidity) and were performed at about 25° C. to assess behavior.

[3] = Kinetic solubility in FaSSIF; details: listed as HC1 salt Form I
Experimental: (§1) Kinetic solubility testing was conducted as follows: About 40-55 mg material was weighed into a 5-mL EP pipe. 4 mL of water/bio-relevant media (SGF, FaSSIF, or FeSSIF) was added into the corresponding sample pipe (drug loading: ˜10 mg/mL calculated as freebase). The pipes were capped tightly and the material was verified to be in contact with the media. The sample vials were placed on a roller and start rolling at 37° C. (rate: 25 r/min). Samples were taken at 1, 2, 4, 24 h. For each time point, 1.0 mL of suspension was transferred into a 2-mL centrifuge tube and the samples were centrifuged. The supernatant was filtered via 0.45 μm PTFE membrane and solubility and pH were measured. An XRPD test on residual solids was conducted.

[4] = Kinetic solubility in SGF; details: listed as HC1 salt Form I
Experimental: as §1

[5] = Thermodynamic aqueous solubility by HPLC; details: HPLC grade water, 25° C., 24 hours; second scale up material; listed as Comp. I HCl (formed using aqueous HCl) Form I
Experimental: The suspension was equilibrated at 25° C. for 24 hours. The suspension was then passed through a filter into an HPLC vial. The filtrate was then diluted by an appropriate factor. Quantification was executed by HPLC with reference to a standard solution of approximately 1 mg·mL^−1 in acetonitrile:water (1:1). Different volumes of the standard, diluted and undiluted sample solutions were injected. […] HPLC method parameters are described in Table 1 and Table 2.
Analysis was performed on an Agilent 1100 series liquid chromatography, equipped with a UV detector (DAD or VWD) @ 254 nm and using Chemstation Rev.B.01.03 software for data processing.
The solubility of the salts/co-crystals of Compound I prepared from the second scale up process was analyzed. The materials recovered after the solubility analysis were evaluated by XRPD to observe any form changes.

CCS(=O)(=O)N1CCN(c2ccc(Nc3ncc(C(N)=O)c(NC4CC4)n3)cc2)CC1 [Compound I HCl Form I, 4-(cyclopropylamino)-2-(4-(4-(ethylsulfonyl)piperazin-1-yl)phenylamino)pyrimidine-5-carboxamide]
Form after slurry maturation (XRPD) [1]: does not experience any form change | GVS weight gain / total weight uptake [2]: about 5.9% | GVS weight gain / total weight uptake ([2]; listed as Comp. I HCl (aq., 1:2) Form I): About 5.9% | Crystalline form by XRPD post GVS analysis ([2]; exposure to humidity 0 to about 90% RH, about 25° C.): does not result in a form change | GVS mass lost ([2]; kept under about 100% dry atmosphere): about 0.5% | GVS weight variation ([2]; up to about 70% RH): does not vary significantly | Solubility (mg/mL) 1 h ([3]; FaSSIF, 37° C., 1 h, drug loading ~10 mg/mL as freebase): 0.012 mg/mL | Solubility (mg/mL) 2 h ([3]; FaSSIF, 37° C., 2 h): 0.013 mg/mL | Solubility (mg/mL) 4 h ([3]; FaSSIF, 37° C., 4 h): 0.013 mg/mL | Solubility (mg/mL) 24 h ([3]; FaSSIF, 37° C., 24 h): 0.011 mg/mL | pH 1 h ([3]; supernatant, FaSSIF (native pH 6.5), 1 h): 5.4 | pH 2 h ([3]; supernatant, FaSSIF (native pH 6.5), 2 h): 5.1 | pH 4 h ([3]; supernatant, FaSSIF (native pH 6.5), 4 h): 5.2 | pH 24 h ([3]; supernatant, FaSSIF (native pH 6.5), 24 h): 4.6 | Solubility (mg/mL) 1 h ([4]; SGF, 37° C., 1 h, drug loading ~10 mg/mL as freebase): 0.041 mg/mL | Solubility (mg/mL) 2 h ([4]; SGF, 37° C., 2 h): 0.039 mg/mL | Solubility (mg/mL) 4 h ([4]; SGF, 37° C., 4 h): 0.036 mg/mL | Solubility (mg/mL) 24 h ([4]; SGF, 37° C., 24 h): 0.035 mg/mL | Final Form ([4]; XRPD of residual solids, SGF, 1 h, 2 h, 4 h, 24 h): HC1 salt Form I | pH 1 h ([4]; supernatant, SGF (native pH 1.8), 1 h): 1.9 | pH 2 h ([4]; supernatant, SGF (native pH 1.8), 2 h): 1.9 | pH 4 h ([4]; supernatant, SGF (native pH 1.8), 4 h): 2.0 | pH 24 h ([4]; supernatant, SGF (native pH 1.8), 24 h): 2.0 | solubility [5]: 0.35 mg/mL
